Experimental findings from ChEMBL document CHEMBL5385859, “Research progress and challenges of TRPV1 channel modulators as a prospective therapy for diabetic neuropathic pain” (Eur J Med Chem, 2023) are described below.

The target in series [1] is T1, Transient receptor potential cation channel subfamily V member 1 (Homo sapiens, UniProt Q8NER1). Description: Antagonist activity at TRPV1 (unknown origin).
The nature of series [2]: Lipophilicity, […] of the compound at pH 6.5. The settings on record: buffer. It is filed as physicochemical.
For series [3], the target named is T1, Transient receptor potential cation channel subfamily V member 1. Nature of the series: Agonist activity at human TRPV1 overexpressed in HEK293 cells incubated for 1 hr by Fluo-4 AM dye based microscopic analysis. It is filed as cell-based.
Series [4] can be described thus: Lipophilicity, log P of the compound in PBS buffer. It is filed as physicochemical.
Series [5] concerns the target T1, Transient receptor potential cation channel subfamily V member 1. Nature of the series: Antagonist activity at human recombinant TPRV1.
The target is the same in series [6]. Nature of the series: Activation of human TRPV1 expressed in HEK293F cells. It is filed as cell-based.
Series [7] has the same target. Nature of the series: Binding affinity to human TRPV1 assessed as inhibition constant by SPR analysis. In general terms: In SPR one partner is held on a chip, and binding of the other changes the refractive index at the surface.
Series [8] is filed under the species Mus musculus. Nature of the series: Analgesic activity in CCI-induced neuropathic pain in wild type C57BL/6 mouse model assessed as reduction in paw threshold pain measured after 2 hrs. It is filed as functional.
Series [9] addresses T1, Transient receptor potential cation channel subfamily V member 1. Description: Inhibition of TRPV1 (unknown origin).
Series [10] has as its system Mus musculus. Nature of the series: Analgesic activity in CCI-induced neuropathic pain mouse model assessed as increase in mechanical paw withdrawal threshold at 5 mg/kg,ip administration measured after 30 mins by von frey test. It is filed as functional, organism-based. The settings on record: 0.5 h.

T1 sequence (Q8NER1 whole entry): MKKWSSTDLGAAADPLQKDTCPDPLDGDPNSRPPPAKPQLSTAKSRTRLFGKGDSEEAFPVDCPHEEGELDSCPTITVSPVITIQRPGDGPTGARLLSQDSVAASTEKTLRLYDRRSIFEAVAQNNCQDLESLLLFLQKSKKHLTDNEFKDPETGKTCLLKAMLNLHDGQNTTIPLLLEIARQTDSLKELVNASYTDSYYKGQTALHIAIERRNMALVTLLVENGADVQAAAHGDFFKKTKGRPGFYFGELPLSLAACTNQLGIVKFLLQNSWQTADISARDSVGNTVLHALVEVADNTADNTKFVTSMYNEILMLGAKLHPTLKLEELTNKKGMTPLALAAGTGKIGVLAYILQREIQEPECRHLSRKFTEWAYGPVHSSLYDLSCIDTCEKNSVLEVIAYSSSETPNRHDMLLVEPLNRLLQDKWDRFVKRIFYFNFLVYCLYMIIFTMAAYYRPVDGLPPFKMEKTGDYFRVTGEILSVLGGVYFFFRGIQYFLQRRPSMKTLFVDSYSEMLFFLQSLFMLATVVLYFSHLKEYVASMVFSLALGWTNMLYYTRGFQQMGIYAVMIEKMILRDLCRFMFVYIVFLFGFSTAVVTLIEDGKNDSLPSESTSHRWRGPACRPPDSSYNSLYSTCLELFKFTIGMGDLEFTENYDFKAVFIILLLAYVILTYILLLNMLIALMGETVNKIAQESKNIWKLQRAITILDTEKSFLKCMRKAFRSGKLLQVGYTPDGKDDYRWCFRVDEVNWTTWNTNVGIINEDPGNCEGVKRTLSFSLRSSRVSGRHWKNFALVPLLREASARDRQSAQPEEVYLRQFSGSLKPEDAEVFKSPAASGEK

As usually defined, the IC50 is the point on the concentration scale where inhibition reaches its midpoint. In series [1], `CC(C)(C)c1ccc(CNC(=S)NCc2ccc(NS(C)(=O)=O)cc2)cc1` gave a half-maximal inhibitory concentration (IC50) of 0.11 nM. In general, logD refers to the decadic logarithm of the distribution of all forms, ionised or not, between an organic phase and buffer at a given pH. A high value points to higher lipophilicity. `CC(C)(O)c1ccccc1-c1ccc2[nH]c(/C=C/c3ccc(C(F)(F)F)cc3)nc2c1` came in with a logD in series [2] of 6.27. With `COc1cc(C/N=C(\S)NCc2ccc(Cl)cc2)cc(I)c1O`, in [1], 106 nM corresponded to half-maximal inhibition (IC50). Same read-out and setting: next, `CC(C)(C)c1ccc(CNC(=S)NCc2ccc(NS(C)(=O)=O)c(F)c2)cc1`: 8 nM. For `O=C(Nc1ccc(C(F)(F)F)cn1)N1CC=C(c2ncc([C@H](O)CO)cc2Cl)CC1`, the logD in [2] was 2.11.

In series [3], `O=C(Nc1ccc(C(F)(F)F)cc1)N1CC=C(c2ncc([C@H](O)CO)cc2Cl)CC1` gave an IC50 of 33.8 nM. Usually logP stands for a log measure of how a compound divides between an organic and an aqueous phase. Read a high logP as a more lipophilic compound. `CC(C)=CCCC1(C)CC1CO` (centres undefined) displayed a logP in series [4] of 2.5. `CCCc1nc(C(F)(F)F)ccc1/C=C/C(=O)N[C@H](C)c1cc(F)c(NS(C)(=O)=O)c(F)c1` showed a log distribution coefficient (logD) in series [2] of 3.67. Turning to `C[C@H](NC(=O)Cn1cnc2ccc(F)c(F)c21)c1ccc(C(C)(C)C)cc1`, the logD in series [2] is 4.34. In [5], the concentration for half-maximal inhibition (IC50) came to 5 nM. The compound `CC(C)c1nc2cc(O)ccc2c(=O)n1-c1ccc(C#N)cc1` returned a logD in [2] of 3.45. On to `O=C(Nc1cccc2cnccc12)N1CCC[C@H]1CNc1ccc(Br)cc1`, for which the IC50 in series [6] came out at 84 nM. By Ki is commonly meant a dissociation constant, usually derived from enzyme kinetics or from competition with a known ligand. `CC(C)(C)C(=O)OCC(CNC(=S)NCc1ccc(NS(C)(=O)=O)c(F)c1)Cc1ccccc1` (centres undefined): the Ki in series [7] worked out at 7.8 nM. Turning to `CC(C)(C)c1ccc2c(c1)CC[C@H]2NC(=O)Nc1cccc2[nH]ncc12` [ABT-102], the logD in series [2] was determined as 4.59. With `CC(=O)Nc1nc2c(Oc3cc(-c4ccc(C(F)(F)F)cc4)ncn3)cccc2s1` [AMG-517], the Activity in the series filed under Mus musculus [8] is 760 nM.

For `COc1cc(CNC(=O)CCCC/C=C/C(C)C)ccc1O` [CAPSAICIN], the logP in [4] came to 3.74.

Compound `Cc1ccc(N2c3cccc(C(=O)Nc4ccc(OCC(F)(F)F)nc4)c3OC[C@@H]2CO)nc1` [JTS-653] yielded a logD in series [2] of 3.83. Further, in series [5], the IC50 worked out at 236 nM. Turning to `CC(C)c1cccc(C(C)C)c1O` [PROPOFOL], the midpoint of inhibition in [9], the IC50, lay at 5.05 nM. The log partition coefficient (logP) in series [4] was 4.15.

Broadly, the EC50 is the concentration at which the effect is half-maximal. Turning to `C=C(C)[C@]12C[C@@H](C)[C@@]34O[C@](Cc5ccccc5)(O[C@@H]1[C@@H]3C=C(COC(=O)Cc1ccc(O)c(OC)c1)C[C@]1(O)C(=O)C(C)=C[C@@H]41)O2` [RESINIFERATOXIN], in the series on Mus musculus [10], the EC50 amounted to 920 nM.

In the case of `O=C(Nc1ccccc1Br)N[C@@H]1CCN(c2ccc(C(F)(F)F)cn2)C1` [SB-705498], in the series listed under Mus musculus [8], the Activity worked out at 8.8 nM. Moreover, the logD in [2] worked out at 3.98. Compound `CNCC1CCCCN1C(=O)Oc1ccc(CNC(=O)CCCC/C=C/C(C)C)cc1OC` (centres undefined) [VOCACAPSAICIN] had a log partition coefficient (logP) in series [4] of 4.32.
